Legend:
[1] = target: VEGFR II (KDR) (Homo sapiens, UniProt P35968); experiment: Inhibition of the KDR kinase activity (33P-ATP, poly-(Glu4Tyr) phosphocellulose filter assay); format: biochemical; details: 10 minutes at room temperature; phosphate incorporation into poly-(Glu4Tyr)
Description: • Stock solution A: 3 mmol of ATP in water, pH 7.0 (−70° C.) • Stock solution B: g-33P-ATP 1 mCi/100 μl • Stock solution C: poly-(Glu4Tyr) 10 mg/ml in water Solution for Dilutions • Substrate solvent: 10 mmol of DTT, 10 mmol of manganese chloride, 100 mmol of magnesium chloride • Enzyme solution: 120 mmol of tris/HCl, pH 7.5, 10 μM of sodium vanadium oxide Sample Application 1
In a microtiter plate (without protein binding) that tapers to a point, 10 μl of substrate mix (10 μl of volume of ATP stock solution A+25 μCi of g-33P-ATP (about 2.5 μl of stock solution B)+30 μl of poly-(Glu4Tyr) stock solution C+1.21 ml of substrate solvent), 10 μl of inhibitor solution (substances corresponding to the dilutions, 3% DMSO in substrate solvent as a control) and 10 μl of enzyme solution (11.25 μg of enzyme stock solution (KDR or FLT-1 kinase) are added at 4° C. in 1.25 ml of enzyme solution (dilute). It is thoroughly mixed and incubated for 10 minutes at room temperature. Then, 10 μl of stop solution (250 mmol of EDTA, pH 7.0) is added, mixed, and 10 μl of the solution is transferred to a P 81 phosphocellulose filter. Then, it is washed several times in 0.1 M phosphoric acid. The filter paper is dried, coated with Meltilex and measured in a microbeta counter.
The IC50 values are determined from the inhibitor concentration, which is necessary to inhibit the phosphate incorporation to 50% of the uninhibited incorporation after removal of the blank reading (EDTA-stopped reaction).

[2] = target: T1, human cytochrome P 450 isoenzyme (3A4) (Homo sapiens, UniProt P08684); experiment: Cytochrome P450 inhibition (Crespi et al.); format: in vitro ADME; details: baculovirus/insect cell-expressed human isoenzyme 3A4
T1 construct: host or cells: baculovirus/insect cells
T1 sequence (P08684 whole entry): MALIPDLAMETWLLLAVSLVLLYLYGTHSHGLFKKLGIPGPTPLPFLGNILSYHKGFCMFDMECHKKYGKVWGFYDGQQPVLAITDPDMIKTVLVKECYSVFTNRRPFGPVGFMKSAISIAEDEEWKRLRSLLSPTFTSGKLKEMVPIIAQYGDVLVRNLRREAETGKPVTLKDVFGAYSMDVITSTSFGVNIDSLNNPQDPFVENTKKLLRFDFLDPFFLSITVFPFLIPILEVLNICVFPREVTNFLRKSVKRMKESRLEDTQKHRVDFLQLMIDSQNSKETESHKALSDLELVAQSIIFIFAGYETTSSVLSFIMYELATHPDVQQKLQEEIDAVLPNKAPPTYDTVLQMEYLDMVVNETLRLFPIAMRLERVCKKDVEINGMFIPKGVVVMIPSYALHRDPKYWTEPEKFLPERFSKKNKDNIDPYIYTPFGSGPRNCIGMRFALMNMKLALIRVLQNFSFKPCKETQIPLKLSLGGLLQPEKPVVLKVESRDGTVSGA
Description: The cytochrome P450 inhibition was performed according to the publication of Crespi et al. (Anal. Biochem., 248, 188-190 (1997)) with use of baculovirus/insect cell-expressed, human cytochrome P 450 isoenzyme (3A4).

VEGFR II (KDR), sequence (P35968 20-1356): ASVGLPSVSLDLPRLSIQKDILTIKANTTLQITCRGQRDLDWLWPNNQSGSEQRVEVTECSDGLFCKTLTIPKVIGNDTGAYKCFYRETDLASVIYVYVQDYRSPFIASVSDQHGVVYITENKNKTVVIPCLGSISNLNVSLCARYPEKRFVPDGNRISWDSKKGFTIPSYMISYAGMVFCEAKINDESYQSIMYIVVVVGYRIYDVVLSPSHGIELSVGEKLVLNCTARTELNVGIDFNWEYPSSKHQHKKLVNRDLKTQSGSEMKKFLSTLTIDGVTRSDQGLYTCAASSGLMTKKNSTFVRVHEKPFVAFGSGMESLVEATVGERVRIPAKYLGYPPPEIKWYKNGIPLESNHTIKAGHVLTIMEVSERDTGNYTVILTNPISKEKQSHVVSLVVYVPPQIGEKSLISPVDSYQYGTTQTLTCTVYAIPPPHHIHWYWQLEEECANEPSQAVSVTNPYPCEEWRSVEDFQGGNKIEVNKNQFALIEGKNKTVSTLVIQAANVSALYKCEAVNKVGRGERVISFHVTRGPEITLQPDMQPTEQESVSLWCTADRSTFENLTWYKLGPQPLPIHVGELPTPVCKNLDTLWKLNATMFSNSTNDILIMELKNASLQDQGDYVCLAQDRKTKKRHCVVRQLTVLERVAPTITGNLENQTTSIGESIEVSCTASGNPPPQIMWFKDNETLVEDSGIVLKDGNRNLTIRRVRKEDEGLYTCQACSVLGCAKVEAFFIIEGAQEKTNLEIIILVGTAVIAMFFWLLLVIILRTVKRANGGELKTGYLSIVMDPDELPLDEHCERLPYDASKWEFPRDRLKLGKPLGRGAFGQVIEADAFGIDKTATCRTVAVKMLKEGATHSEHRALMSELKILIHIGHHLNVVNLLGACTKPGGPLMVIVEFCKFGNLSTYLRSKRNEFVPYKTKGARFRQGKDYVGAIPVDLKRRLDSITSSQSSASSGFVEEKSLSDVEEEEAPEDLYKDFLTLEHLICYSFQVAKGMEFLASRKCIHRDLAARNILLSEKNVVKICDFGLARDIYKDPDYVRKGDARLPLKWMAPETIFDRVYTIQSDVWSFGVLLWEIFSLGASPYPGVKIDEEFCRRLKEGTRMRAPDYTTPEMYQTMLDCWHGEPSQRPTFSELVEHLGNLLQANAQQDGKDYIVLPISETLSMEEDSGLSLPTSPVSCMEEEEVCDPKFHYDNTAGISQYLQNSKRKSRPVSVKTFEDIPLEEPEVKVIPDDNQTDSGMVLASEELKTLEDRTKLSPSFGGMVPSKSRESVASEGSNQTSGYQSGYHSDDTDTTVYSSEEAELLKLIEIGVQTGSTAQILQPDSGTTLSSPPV

Structure (SMILES)	melting point [°C]	IC50 [1] [nM]	IC50 [2] [nM]
Nc1cc(CNc2ccccc2C(=O)Nc2ccc3[nH]ncc3c2)ccn1 [Example 2.2, 2-[(2-Amino-pyridin-4-ylmethyl)-amino]-N-(1H-indazol-5-yl)-benzamide]	200		
CCOC(=O)Nc1cc(CNc2ccccc2C(=O)Nc2ccc3cn[nH]c3c2)ccn1 [Example 6.22]		24	10000
O=C(Nc1cccc(C(F)(F)F)c1)c1ccccc1NCc1ccnc(N2C(=O)COCC2=O)c1 [Example 9.1, 2-{[2-(3,5-Dioxo-morpholin-4-yl)-pyridin-4-ylmethyl]-amino}-N-(3-trifluoromethyl-phenyl)-benzamide]	201.9		
O=C(Nc1cc2ccccc2cn1)c1ccccc1NCc1ccnc(N2CCOCC2)c1 [Example 1.14]		52	> 30000
CC(=O)N(C)c1cc(CNc2ccccc2C(=O)Nc2cc3ccccc3cn2)ccn1 [Example 6.31, 2-{[2-(Acetyl-methyl-amino)-pyridin-4-ylmethyl]-amino}-N-isoquinolin-3-yl-benzamide]	71	65	11000
CNC(=O)Nc1cc(CNc2ccccc2C(=O)Nc2cc3ccccc3cn2)ccn1 [Example 3.24]		12	14000
CN(C)C(=O)Nc1cc(CNc2ccccc2C(=O)Nc2cc3ccccc3cn2)ccn1 [Example 3.30, 2-{[2-(3,3-Dimethyl-ureido)-pyridin-4-ylmethyl]-amino}-N-(3-isoquinolinyl)-benzamide]		10	5500
Nc1cc(CNc2ccccc2C(=O)Nc2cc3ccccc3cn2)ccn1 [Example 2.1, 2-[(2-Amino-pyridin-4-ylmethyl)-amino]-N-isoquinolin-3-yl-benzamide]	202		
